How the values were obtained:
HDAC7 = biological target: T1, HDAC7 (Homo sapiens, UniProt Q8WUI4); assay: Fluorescence-based HDAC enzyme assay, recombinant HDAC7; type: biochemical; settings: recombinant human HDAC enzyme in vitro; read-out: IC50 (μM) HD7
T1 construct: cDNAs encoding truncated versions of HDAC4, 5 and 7 encompassing their deacetylase domains; hexahistidine (N); made in house; host or cells: Sf-9 insect cells (baculovirus)
T1 sequence (Q8WUI4 512-865 limits assumed): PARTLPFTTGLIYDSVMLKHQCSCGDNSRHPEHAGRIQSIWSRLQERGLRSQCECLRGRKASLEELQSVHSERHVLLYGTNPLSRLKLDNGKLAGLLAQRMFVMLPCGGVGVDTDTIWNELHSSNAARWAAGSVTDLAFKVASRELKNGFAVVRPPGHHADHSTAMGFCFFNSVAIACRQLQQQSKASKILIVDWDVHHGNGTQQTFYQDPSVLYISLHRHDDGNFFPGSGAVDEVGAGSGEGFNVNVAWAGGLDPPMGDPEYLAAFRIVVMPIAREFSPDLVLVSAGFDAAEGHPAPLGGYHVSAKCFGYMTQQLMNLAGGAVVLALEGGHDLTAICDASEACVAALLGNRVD
Text: (§1) cDNAs of human HDAC1-8 and 11 were generated by RT-PCR reactions using primers complementary to the 5′ and 3′ coding sequence of human HDAC gene sequences in GenBank. cDNAs corresponding to the full length human HDAC1, 2, 3 and 11 were cloned into pBlueBac4.5 vector (Invitrogen). The constructs were used to generate recombinant baculoviruses using the Bac-N-Blue™ DNA according to the manufacturer's instructions (Invitrogen). The recombinant HDAC1, 2, 3, 11 proteins produced harbor a FLAG tag at their C-termini. cDNAs encoding truncated versions of HDAC4, 5 and 7 encompassing their deacetylase domains were cloned into pDEST10 as an N-terminal hexahistidine fusion protein and recombinant baculoviruses were generated using the Bac-to-Bac™ Baculovirus expression system (Invitrogen). HDAC6 and 8 were cloned as full length N-terminally His-tagged protein. All HDAC proteins were expressed in insect Sf-9 cells (Spodoptera frugiperdai) upon infection with recombinant baculovirus. HDAC1 enzyme was purified from the Q-sepharose FF column (Amersham Pharmacia Biotech, Baie d'Urfe QC, Canada) followed by an anti-FLAG immunoaffinity column (Sigma). HDAC2, 3 and 11 were purified using Flag-antibody immunoaffinity purification. HDAC4, 5, 6, 7 and 8 were purified using either Ni-NTA resin (QIAGEN Mississauga ON, Canada) or His-Select resin (Sigma) with step washes and elution with different concentrations of imidazole in Buffer containing 25 mM Tris (or NaPO4) pH 8.0, 10% glycerol and 150 mM or 500 mM NaCl.
(§2) Recombinant HDAC enzymes were incubated with diluted compounds in assay buffer (25 mM Hepes, pH 8.0, 137 mM NaCl, 1 mM MgCl2 and 2.7 mM KCl) for 10 minutes at ambient temperatures in black 96-well plate. Boc-Lys(Ac)-AMC (for HDAC1, 2, 3, 6, and 8 enzymes), which was purchased from Bachem Biosciences Inc., (King of Prussia, Philadelphia) were added into enzyme-compound mixture and incubated at 37° C. For HDAC4, 5, 7 assays, Boc-Lys(TFA)-AMC, which was synthesized in house, was used as substrate and 0.1% BSA was added to the buffer. […] Reaction time was predetermined to ensure that reaction was linear for the incubation time. Reaction was stopped by adding a freshly prepared trypsin (1 mg/ml final concentration) with 1 μM TSA (Biomol) in assay buffer. After 30 minutes, fluorescence was measured using a fluorometer (SPECTRAMAX GeminiXS, Molecular Devices, Sunnylvale, Calif.). The 50% inhibitory concentrations (IC50) for inhibitors were determined by analyzing dose-response inhibition curves.

HDAC1 = biological target: T2, HDAC1 (Homo sapiens, UniProt Q13547); assay: Fluorescence-based HDAC enzyme assay, recombinant HDAC1; type: biochemical; settings: recombinant human HDAC enzyme in vitro; read-out: IC50 (μM) HD1
T2 construct: cDNAs corresponding to the full length human HDAC1, 2, 3 and 11 were cloned into pBlueBac4.5 vector; FLAG (C); made in house; host or cells: Sf-9 insect cells (baculovirus)
Text: as §1, with “HDAC2, 3 and 11 were purified using Flag-antibody immunoaffinity purification.” left out
as §2, with “Boc-Lys(Ac)-AMC” for “Recombinant HDAC enzymes were incubated with diluted compounds in assay buffer (25 mM Hepes, pH 8.0, 137 mM NaCl, 1 mM MgCl2 and 2.7 mM KCl) for 10 minutes at ambient temperatures in black 96-well plate. Boc-Lys(Ac)-AMC”, “Calif.).” for “Calif.). The 50% inhibitory concentrations (IC50) for inhibitors were determined by analyzing dose-response inhibition curves.”

T2 sequence (Q13547 whole entry): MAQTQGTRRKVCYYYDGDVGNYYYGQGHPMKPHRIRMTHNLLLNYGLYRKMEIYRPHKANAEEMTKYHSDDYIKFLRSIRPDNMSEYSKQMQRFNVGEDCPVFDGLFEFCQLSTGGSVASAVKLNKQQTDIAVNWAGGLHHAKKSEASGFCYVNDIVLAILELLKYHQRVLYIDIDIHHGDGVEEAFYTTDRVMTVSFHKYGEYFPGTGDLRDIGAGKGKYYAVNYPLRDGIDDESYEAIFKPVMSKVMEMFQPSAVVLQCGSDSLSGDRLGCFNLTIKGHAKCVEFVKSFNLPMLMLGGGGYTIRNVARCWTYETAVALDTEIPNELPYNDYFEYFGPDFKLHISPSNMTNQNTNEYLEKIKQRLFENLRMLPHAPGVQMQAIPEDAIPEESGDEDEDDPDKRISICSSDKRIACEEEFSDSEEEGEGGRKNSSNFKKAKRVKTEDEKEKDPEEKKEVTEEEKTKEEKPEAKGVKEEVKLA

| SMILES | IC50 (HDAC7) | IC50 (HDAC1) |
| --- | --- | --- |
| Nc1ccccc1NC(=O)c1ccc(CNc2nccc(-c3cccnc3)n2)cc1 [Compound A] | > 10 µM | – |
| Nc1ccccc1NC(=O)c1ccc(N2CC[C@H](Nc3cccnc3)C2)cc1 [Compound B] | > 10 µM | 0.2 µM |
| Nc1ccc(-c2ccccc2)cc1NC(=O)c1ccc(N2CC[C@H](N)C2)cc1 [Compound D] | > 10 µM | 0.04 µM |
| Nc1ccc(-c2ccccc2)cc1NC(=O)c1ccc(N2CCC(N)CC2)cc1 [Compound E] | > 10 µM | 0.02 µM |
| CN1CCN(c2ccc(C(=O)Nc3cc(-c4ccccn4)ccc3N)cc2)CC1 [Compound F] | > 10 µM | 0.1 µM |
| CN1CCN(c2ccc(C(=O)Nc3cc(-c4ccncc4)ccc3N)cc2)CC1 [Compound G] | > 10 µM | 0.06 µM |
| CC(C)N1CCN(c2ccc(C(=O)Nc3cc(-c4ccncc4)ccc3N)cc2)CC1 [Compound H] | > 10 µM | 0.06 µM |

From patent US20090124631A1, “Combination Therapy” (priority 2007, published 2009)
